These are literature values, as cited in US10501455B2, “Inhibitors of leukotriene A4 hydrolase” (Celtaxsys, Inc., priority 2013, dated 2019).

Data set [1] concerns the target T1, LTA4-h (Mus musculus, UniProt P24527).
T1 construct: host or cells: mouse blood ex vivo
T1 sequence (P24527 1-611): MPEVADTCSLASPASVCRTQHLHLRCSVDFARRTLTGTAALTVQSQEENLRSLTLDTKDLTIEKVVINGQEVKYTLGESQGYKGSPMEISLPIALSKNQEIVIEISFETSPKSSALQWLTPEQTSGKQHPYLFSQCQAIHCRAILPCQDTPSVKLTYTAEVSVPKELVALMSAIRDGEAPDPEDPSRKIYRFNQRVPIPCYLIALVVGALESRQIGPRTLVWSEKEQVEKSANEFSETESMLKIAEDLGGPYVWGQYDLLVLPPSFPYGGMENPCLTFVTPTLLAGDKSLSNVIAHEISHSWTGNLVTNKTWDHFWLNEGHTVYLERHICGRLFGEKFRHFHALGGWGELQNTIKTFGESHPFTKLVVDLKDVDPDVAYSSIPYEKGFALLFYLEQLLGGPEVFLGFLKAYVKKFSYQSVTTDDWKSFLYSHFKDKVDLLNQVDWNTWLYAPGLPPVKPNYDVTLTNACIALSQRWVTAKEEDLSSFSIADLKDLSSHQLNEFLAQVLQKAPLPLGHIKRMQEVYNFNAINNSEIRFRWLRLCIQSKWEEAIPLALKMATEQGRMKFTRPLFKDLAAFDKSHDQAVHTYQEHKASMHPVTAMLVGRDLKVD
The conditions noted are these: oral administration, mouse blood ex vivo; cited from earlier work.

Data set [2] concerns the target T2, LTA4-h (Rattus norvegicus, UniProt P30349).
T2 construct: host or cells: rat peritoneum in vivo
T2 sequence (P30349 1-611): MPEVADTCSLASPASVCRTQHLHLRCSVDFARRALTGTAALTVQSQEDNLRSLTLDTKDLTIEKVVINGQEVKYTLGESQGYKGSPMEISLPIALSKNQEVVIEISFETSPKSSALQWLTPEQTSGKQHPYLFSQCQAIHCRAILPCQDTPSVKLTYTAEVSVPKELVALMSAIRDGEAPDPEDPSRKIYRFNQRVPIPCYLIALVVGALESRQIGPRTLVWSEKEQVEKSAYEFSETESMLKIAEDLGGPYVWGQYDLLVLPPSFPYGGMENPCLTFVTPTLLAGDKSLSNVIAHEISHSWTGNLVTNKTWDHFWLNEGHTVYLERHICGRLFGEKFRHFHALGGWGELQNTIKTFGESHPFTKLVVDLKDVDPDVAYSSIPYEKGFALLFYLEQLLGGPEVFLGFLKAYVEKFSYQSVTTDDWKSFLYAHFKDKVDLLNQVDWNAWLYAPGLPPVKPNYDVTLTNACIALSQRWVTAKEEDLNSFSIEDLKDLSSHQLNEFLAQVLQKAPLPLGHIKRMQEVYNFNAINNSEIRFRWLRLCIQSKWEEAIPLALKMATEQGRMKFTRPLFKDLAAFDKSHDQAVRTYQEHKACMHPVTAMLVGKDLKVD
Particulars: oral administration, rat peritoneum in vivo; cited from earlier work.

The test system of the next data set is colitis. The conditions noted are these: eight weeks of treatment, cotton top tamarins; cited from earlier work.

`CN(CCCOc1ccc(Cc2ccccc2)cc1)CCC(=O)O.Cl` [SC57461]: the “inhibition of ionophore-induced LTB4 production” value at LTA4-h [1] and at LTA4-h [2] was “caused inhibition” each time. Besides, the colitis symptoms result in the data set with colitis is listed as “significantly improved colitis symptoms”.
